Results from PubChem BioAssay AID652179 (Johns Hopkins Ion Channel Center, 2013).
Calls of active or inactive are those of the source.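 Rule for the calls: active = maximum inhibition above 50% at any tested concentration, with a dose response curve fitted; inactive = no inhibition at any concentration or no dose response curve.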

Target: TRPC4 (transient receptor potential cation channel C4), mouse
Experiment: TRPC4 channel inhibitors, SAR follow-up, cell-based, concentration-response (AID 652179)
Settings: HEK293 TRPC4/mu-opioid cells, Fluo-4 calcium fluorescence ratio

Row | Compound | IC50
1 | Cc1cc(N2CCC(F)(F)CC2)nc2ccccc12 | 10.6 µM
2 | c1ccc2nc(N3CCCCC3)ccc2c1 | 4.61 µM
3 | C[C@H]1CCCN1c1ccc2ccccc2n1 | 14.9 µM

Next, values leading:

Row | IC50 | Compound
4 | 1.53 µM | Cc1cc(N2CCCCC2)nc2ccccc12
5 | 12.6 µM | Cc1cc(N2CCCC(F)C2)nc2ccccc12 (stereo unspecified)
6 | 10.2 µM | Cc1cc(N2CCC(F)CC2)nc2ccccc12

Same assay, conditions: HEK293 TRPC4/mu-opioid cells, Fluo-4 calcium fluorescence ratio; at 20 µM (top of the series)

Row | Compound | fluorescence ratio, lower = inhibition
7 | OC1CCN(c2ccc3ccccc3n2)CC1 | inactive
8 | O=C1CCN(c2ccc3ccccc3n2)CC1 | inactive
9 | c1ccc2nc(N3CCCC3)ccc2c1 | inactive
10 | FC1(F)CCN(c2ccc3ccccc3n2)CC1 | inactive
11 | OC1CCN(c2ccc3ccccc3n2)C1 (stereo unspecified) | inactive
12 | FC1CCN(c2ccc3ccccc3n2)CC1 | inactive
13 | FC1CCCN(c2ccc3ccccc3n2)C1 (stereo unspecified) | inactive
14 | OC1CCCN(c2ccc3ccccc3n2)C1 (stereo unspecified) | inactive

More lines, now with the values ahead:

Row | fluorescence ratio, lower = inhibition | Compound
15 | inactive | Cc1cc(N(C)C)nc2ccccc12
16 | inactive | Cc1cc(N2CCC(O)CC2)nc2ccccc12
17 | inactive | Cc1cc(N2CCC(O)C2)nc2ccccc12 (stereo unspecified)
18 | inactive | Cc1cc(-n2cccn2)nc2ccccc12
19 | inactive | Cc1cc(-n2ccnc2)nc2ccccc12
20 | inactive | Cc1cc(N2CCC(=O)CC2)nc2ccccc12
21 | inactive | Cc1cc(-n2cccc2)nc2ccccc12
